Test results reported in PubChem BioAssay AID2691 (Broad Institute, 2010).
In brackets after ≈: the same amount, converted by molar mass. Records with an inconclusive call do not appear. Activity calls are given as the source filed them.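 The calls were made as follows: active = dose-dependent viability drop with mean lowest dose clearly under solvent controls below the top tested dose; inconclusive = self-fluorescent without titration, or replicates split around top dose; inactive = no such drop up to the top dose.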

tested on: NIH 3T3 viability, Alamar Blue fluorescence, 3 days; test: NIH 3T3 cell viability reduction, dose response, cytotoxicity control for polyadenylation inhibitor project, Alamar Blue fluorescence, MIC (AID 2691)

Structure (SMILES)	MIC
N#CC1(C#N)C2=C(CCCC2)NC(c2ccccc2)C1(C#N)C#N (stereo not given)	> 25 µM (inactive)
N#C/C(=C/c1ccc([N+](=O)[O-])o1)c1nc2ccccc2[nH]1	1.6 µM (≈ 0.448 µg/mL)
COc1cc(/C=C2/CC/C(=C/c3ccc(O)c(OC)c3)C2=O)ccc1O	> 25 µM (inactive)
O=C(Oc1c(-c2ccccc2)c(=O)n2c3c(cccc13)CC2)c1cccc([N+](=O)[O-])c1	> 25 µM (inactive)
CCN1/C(=C\C=C\c2sc3ccccc3[n+]2CC)Sc2ccccc21	> 25 µM (inactive)
Cc1ccc(-c2nn3c(C)nnc3s2)cc1NC(=O)CSc1ccc(Cl)cc1	> 25 µM (inactive)
COc1cc(/C=C2\SC(=S)N(NC(=O)c3cccnc3)C2=O)ccc1O	> 25 µM (inactive)
Nc1ncnc2c1ncn2C1OC(CO)CC1O (stereo not given)	> 25 µM (inactive)
Cc1ccc2nc(/C(C#N)=C/c3ccc([N+](=O)[O-])o3)[nH]c2c1	0.8 µM (≈ 0.235 µg/mL)
O=C(COC(=O)Cc1ccc(S(=O)(=O)N2CCOCC2)s1)NCc1ccc(Cl)cc1	> 25 µM (inactive)
COc1cc(/C=C2\SC(=S)N(NC(=O)c3ccncc3)C2=O)ccc1O	> 25 µM (inactive)
Cc1ccc(Nc2c(-c3ccc(C)o3)nc3ncccn23)cc1	> 25 µM (inactive)
Cc1ccc(C(=O)c2no[n+]([O-])c2C(=O)c2ccc(C)cc2)cc1	1.6 µM (≈ 0.516 µg/mL)
CC(=O)c1ccc(Sc2ccccc2)c([N+](=O)[O-])c1	> 25 µM (inactive)
CCOc1cc(/C=C2\N=C(SC(C)C(N)=O)N(c3ccc(OC(F)F)cc3)C2=O)ccc1O (stereo not given)	> 25 µM (inactive)
